Like-named read-outs stand apart in the source and are kept apart here.
Columns and labels:
[1] = test system: Key Broadleaf Weed and Crop Species; experiment: Post-Emergent Test II (Table 5); assay type: in vivo; settings: post-emergence, 336 h; for pest or weed control at 70 g/ha: application rate 70 (kg ai/ha; footnote: g ai/ha); for pest or weed control at 140 g/ha: application rate 140 (kg ai/ha; footnote: g ai/ha)
Outline: (§1)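 Post-emergence greenhouse spray, 1st-2nd true leaf stage; track sprayer, 187 L/ha; acetone/DMSO stock diluted in aqueous acetone/IPA/DMSO with Atplus 411F and Triton X-155; rates 1× to 1/16×; subirrigated; visual injury 0 (none) to 100% (complete kill) at 14 days.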

[2] = test system: Key Grass and Sedge Weeds as well as Grass Crops; experiment: Post-Emergent Test II (Table 6); assay type: in vivo; settings: post-emergence, 336 h, 14 days after application; for pest or weed control at 70 g/ha: 70 g ai/ha; for pest or weed control at 140 g/ha: 140 g ai/ha
Outline: as §1

[3] = Abutilon theophrasti, ABUTH: velvetleaf (Abutilon theophrasti), read-out: Visual Growth Reduction (%) 14 Days After Application ABUTH
[4] = Amaranthus retroflexus, AMARE: redroot pigweed (Amaranthus retroflexus), read-out: Visual Growth Reduction (%) 14 Days After Application AMARE
[5] = Brassica napus, BRSSS: oilseed rape, canola (Brassica napus), read-out: Visual Growth Reduction (%) 14 Days After Application BRSSS
[6] = Chenopodium album, CHEAL: lambsquarters (Chenopodium album), read-out: Visual Growth Reduction (%) 14 Days After Application CHEAL
[7] = Euphorbia heterophylla, EPHHL: wild poinsettia (Euphorbia heterophylla), read-out: Visual Growth Reduction (%) 14 Days After Application EPHHL
[8] = Helianthus annuus, HELAN: sunflower (Helianthus annuus), read-out: Visual Growth Reduction (%) 14 Days After Application HELAN
[9] = Viola tricolor, VIOTR: wild pansy (Viola tricolor), read-out: Visual Growth Reduction (%) 14 Days After Application VIOTR
[10] = CYPSS, read-out: Visual Growth Reduction (%) 14 Days After Application CYPSS
[11] = DIGSA: crabgrass (Digitaria sanguinalis), read-out: Visual Growth Reduction (%) 14 Days After Application DIGSA
[12] = ECHSS, read-out: Visual Growth Reduction (%) 14 Days After Application ECHSS
[13] = ORYSS (crop), read-out: Visual Growth Reduction (%) 14 Days After Application ORYSS
[14] = SETFA: giant foxtail (Setaria faberi), read-out: Visual Growth Reduction (%) 14 Days After Application SETFA
[15] = SORVU: grain sorghum (Sorghum vulgare), read-out: Visual Growth Reduction (%) 14 Days After Application SORVU
[16] = TRZSS (crop), read-out: Visual Growth Reduction (%) 14 Days After Application TRZSS
[17] = ZEAMX: maize, corn (Zea mays), read-out: Visual Growth Reduction (%) 14 Days After Application ZEAMX

`COC(=O)c1nc(-c2ccc(Cl)c(F)c2C)cc(N)c1Cl` [Compound 73] gave a pest or weed control at 70 g/ha [1, 3] of 95 to 100%, a pest or weed control at 140 g/ha [1, 3] of 95 to 100% and a pest or weed control at 70 g/ha [1, 4] of 95 to 100%. For the same compound, the pest or weed control at 140 g/ha [1, 4] was 95 to 100%, the pest or weed control at 70 g/ha [1, 5] was 95 to 100% and the pest or weed control at 140 g/ha [1, 5] was 95 to 100%. It also gave a pest or weed control at 70 g/ha [1, 6] of 95 to 100%, a pest or weed control at 140 g/ha [1, 6] of 95 to 100% and a pest or weed control at 70 g/ha [1, 7] of 75 to 84%. The pest or weed control at 140 g/ha [1, 7] was 75 to 84%, the pest or weed control at 70 g/ha [1, 8] was 95 to 100% and the pest or weed control at 140 g/ha [1, 8] was 95 to 100%. It also gave a pest or weed control at 70 g/ha [1, 9] of 85 to 94%, a pest or weed control at 140 g/ha [1, 9] of 95 to 100% and a melting point of 128 to 134 °C. For the same compound, the pest or weed control at 70 g/ha [2, 10] was 95 to 100%, the pest or weed control at 140 g/ha [2, 10] was 95 to 100% and the pest or weed control at 70 g/ha [2, 11] was 0 to 29%. For the same compound, the pest or weed control at 140 g/ha [2, 11] was 0 to 29%, the pest or weed control at 70 g/ha [2, 12] was 30 to 44% and the pest or weed control at 140 g/ha [2, 12] was 45 to 59%. It also gave a pest or weed control at 70 g/ha [2, 13] of 0 to 29%, a pest or weed control at 140 g/ha [2, 13] of 0 to 29% and a pest or weed control at 70 g/ha [2, 14] of 30 to 44%. The pest or weed control at 140 g/ha [2, 14] was 45 to 59%, the pest or weed control at 70 g/ha [2, 15] was 45 to 59% and the pest or weed control at 140 g/ha [2, 15] was 60 to 74%. For the same compound, the pest or weed control at 70 g/ha [2, 16] was 45 to 59%, the pest or weed control at 140 g/ha [2, 16] was 60 to 74% and the pest or weed control at 70 g/ha [2, 17] was 60 to 74%. It also gave a pest or weed control at 140 g/ha [2, 17] of 75 to 84%.

Compound `COC(=O)c1nc(-c2ccc(C(F)(F)F)nc2F)cc(N)c1Cl` [Compound 74] has a pest or weed control at 70 g/ha [1, 3] of 85 to 94%, a pest or weed control at 140 g/ha [1, 3] of 95 to 100% and a pest or weed control at 70 g/ha [1, 5] of 30 to 44%. The pest or weed control at 140 g/ha [1, 5] was 45 to 59%, the pest or weed control at 70 g/ha [1, 6] was 75 to 84% and the pest or weed control at 140 g/ha [1, 6] was 85 to 94%. For the same compound, the pest or weed control at 70 g/ha [1, 7] was 0 to 29%, the pest or weed control at 140 g/ha [1, 7] was 0 to 29% and the pest or weed control at 70 g/ha [1, 8] was 45 to 59%. It also gave a pest or weed control at 140 g/ha [1, 8] of 60 to 74%, a pest or weed control at 70 g/ha [1, 9] of 0 to 29% and a pest or weed control at 140 g/ha [1, 9] of 0 to 29%. It also gave a melting point of 138 to 141 °C, a pest or weed control at 70 g/ha [2, 10] of 0 to 29% and a pest or weed control at 140 g/ha [2, 10] of 0 to 29%. The pest or weed control at 70 g/ha [2, 11] was 0 to 29%, the pest or weed control at 140 g/ha [2, 11] was 0 to 29% and the pest or weed control at 70 g/ha [2, 12] was 0 to 29%. It also gave a pest or weed control at 140 g/ha [2, 12] of 45 to 59%, a pest or weed control at 70 g/ha [2, 13] of 0 to 29% and a pest or weed control at 140 g/ha [2, 13] of 0 to 29%. It also gave a pest or weed control at 70 g/ha [2, 14] of 0 to 29%, a pest or weed control at 140 g/ha [2, 14] of 0 to 29% and a pest or weed control at 70 g/ha [2, 15] of 0 to 29%. For the same compound, the pest or weed control at 140 g/ha [2, 15] was 45 to 59%, the pest or weed control at 70 g/ha [2, 16] was 0 to 29% and the pest or weed control at 140 g/ha [2, 16] was 0 to 29%. For the same compound, the pest or weed control at 70 g/ha [2, 17] was 0 to 29% and the pest or weed control at 140 g/ha [2, 17] was 30 to 44%.

`COC(=O)c1nc(-c2ccc(C)nc2F)c(F)c(N)c1Cl` [Compound 76] gave a pest or weed control at 70 g/ha [1, 3] of 85 to 94%, a pest or weed control at 140 g/ha [1, 3] of 85 to 94% and a pest or weed control at 70 g/ha [1, 4] of 95 to 100%. It also gave a pest or weed control at 140 g/ha [1, 4] of 95 to 100%, a pest or weed control at 70 g/ha [1, 5] of 85 to 94% and a pest or weed control at 140 g/ha [1, 5] of 95 to 100%. It also gave a pest or weed control at 70 g/ha [1, 6] of 95 to 100%, a pest or weed control at 140 g/ha [1, 6] of 95 to 100% and a pest or weed control at 70 g/ha [1, 7] of 95 to 100%. The pest or weed control at 70 g/ha [1, 8] was 85 to 94%, the pest or weed control at 140 g/ha [1, 8] was 95 to 100% and the pest or weed control at 70 g/ha [1, 9] was 0 to 29%. It also gave a pest or weed control at 140 g/ha [1, 9] of 0 to 29%, a melting point of 165 to 166 °C and a pest or weed control at 70 g/ha [2, 10] of 0 to 29%. The pest or weed control at 140 g/ha [2, 10] was 0 to 29%, the pest or weed control at 70 g/ha [2, 11] was 75 to 84% and the pest or weed control at 140 g/ha [2, 11] was 85 to 94%. It also gave a pest or weed control at 70 g/ha [2, 12] of 75 to 84%, a pest or weed control at 140 g/ha [2, 12] of 85 to 94% and a pest or weed control at 70 g/ha [2, 13] of 0 to 29%. For the same compound, the pest or weed control at 140 g/ha [2, 13] was 0 to 29%, the pest or weed control at 70 g/ha [2, 14] was 45 to 59% and the pest or weed control at 140 g/ha [2, 14] was 60 to 74%. For the same compound, the pest or weed control at 70 g/ha [2, 15] was 45 to 59%, the pest or weed control at 140 g/ha [2, 15] was 45 to 59% and the pest or weed control at 70 g/ha [2, 16] was 30 to 44%. The pest or weed control at 140 g/ha [2, 16] was 45 to 59%, the pest or weed control at 70 g/ha [2, 17] was 0 to 29% and the pest or weed control at 140 g/ha [2, 17] was 95 to 100%.
